Experimental data: ChEMBL document CHEMBL1201862, “PubChem BioAssay data set” (2004)
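Exposure lasted 48 hours, with cells grown in 96-well plates and compounds tested at five concentrations. Here, GI50 denotes the concentration required for 50% inhibition of growth.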 Calls of active or inactive are those of the source. Cut-off read from the data, not from the text of the source: active = GI50 up to about 1.1 µM and inactive = higher.

How the values were obtained:
Experiment in all cases: DTP human tumour cell line panel, 48 h
ACHN = tested on: ACHN
COLO 205 = tested on: COLO 205
HL-60 = tested on: HL-60
HOP-92 = tested on: HOP-92
IGROV-1 = tested on: IGROV-1
K562 = tested on: K562
KM12 = tested on: KM12
LXFL 529 = tested on: LXFL 529
Malme-3M = tested on: Malme-3M
OVCAR-4 = tested on: OVCAR-4
OVCAR-5 = tested on: OVCAR-5
SF-268 = tested on: SF-268
SK-OV-3 = tested on: SK-OV-3
SW-620 = tested on: SW-620
TK-10 = tested on: TK-10
HCT-116 = tested on: HCT-116
SR = tested on: SR

Measured: GI50

O=[N+]([O-])c1ccc(N=P(c2ccccc2)(c2ccccc2)c2ccccc2)n2nnnc12
inactive: ACHN 43.5 µM | COLO 205 82 µM | HL-60 36.1 µM | HOP-92 22.2 µM | IGROV-1 > 100 µM | K562 67 µM | KM12 66.4 µM | LXFL 529 48.3 µM | Malme-3M 50.8 µM | OVCAR-4 31.8 µM | OVCAR-5 > 100 µM | SF-268 36.1 µM | SK-OV-3 46.1 µM | SW-620 > 100 µM | TK-10 > 100 µM

C=C1C(=O)OC2C/C(C)=C/CC/C(C)=C/CCC3(COC(C)=O)OC3CC12 (stereo not drawn)
inactive: ACHN 14.1 µM | COLO 205 4.55 µM | HCT-116 1.84 µM | HL-60 2.21 µM | IGROV-1 16.7 µM | K562 5.68 µM | KM12 13.7 µM | LXFL 529 2.77 µM | Malme-3M 12.9 µM | OVCAR-4 26.7 µM | OVCAR-5 16.5 µM | SF-268 10 µM | SK-OV-3 13.7 µM | SW-620 2.04 µM | TK-10 7.14 µM

Cc1ccc(S(=O)(=O)NC(=O)C#CCOC2CCCCO2)cc1 (stereo not drawn)
inactive: ACHN > 100 µM | HCT-116 > 100 µM | HL-60 > 100 µM | HOP-92 > 100 µM | K562 > 100 µM | LXFL 529 > 100 µM | Malme-3M > 100 µM | OVCAR-4 > 100 µM | OVCAR-5 > 100 µM | SR > 100 µM | SW-620 > 100 µM | TK-10 > 100 µM

CC1=C(C(=O)NCc2ccccc2)C(/C=C/c2ccccc2)C(C(=O)NCc2ccccc2)=C(C)N1
inactive: ACHN > 100 µM | HCT-116 > 100 µM | HL-60 > 100 µM | HOP-92 > 100 µM | IGROV-1 > 100 µM | K562 > 100 µM | KM12 > 100 µM | LXFL 529 > 100 µM | Malme-3M > 100 µM | OVCAR-4 > 100 µM | OVCAR-5 > 100 µM | SF-268 > 100 µM | SR > 100 µM | SW-620 > 100 µM | TK-10 > 100 µM

C#CC(C)(C)Oc1cc(O)c2c(=O)c3ccccc3n(C)c2c1
inactive: ACHN 86.1 µM | COLO 205 > 100 µM | HCT-116 > 100 µM | HL-60 > 100 µM | HOP-92 > 100 µM | IGROV-1 > 100 µM | K562 > 100 µM | LXFL 529 > 100 µM | Malme-3M > 100 µM | OVCAR-4 > 100 µM | OVCAR-5 > 100 µM | SF-268 > 100 µM | SK-OV-3 > 100 µM | SR 17.3 µM | TK-10 > 100 µM

COc1c(I)c(OC)c2c(c1I)O[C@@H]1OCC[C@H]21
inactive: ACHN 17.3 µM | COLO 205 20 µM | HCT-116 35.6 µM | HL-60 17.3 µM | HOP-92 22.7 µM | IGROV-1 37.6 µM | K562 41.2 µM | KM12 29.7 µM | LXFL 529 26.9 µM | Malme-3M 34 µM | OVCAR-4 23.6 µM | OVCAR-5 41.1 µM | SK-OV-3 31.8 µM | SR 15.7 µM | SW-620 35 µM | TK-10 40.6 µM

COc1cc(Nc2cnc3cc(C(F)(F)F)ccc3n2)cc(OC)c1OC
inactive: ACHN > 100 µM | COLO 205 > 100 µM | HCT-116 > 100 µM | HL-60 > 100 µM | HOP-92 > 100 µM | LXFL 529 > 100 µM | Malme-3M > 100 µM | OVCAR-5 > 100 µM | SF-268 > 100 µM | SK-OV-3 > 100 µM | SR > 100 µM | SW-620 > 100 µM | TK-10 > 100 µM

C=C1CC2OC(=O)C(=C)C2C(O)C2C(=C)CCC12 (stereo not drawn)
inactive: ACHN 9.04 µM | COLO 205 3.78 µM | HCT-116 3.62 µM | HL-60 1.89 µM | HOP-92 2.06 µM | IGROV-1 17.7 µM | K562 3.47 µM | KM12 10.8 µM | LXFL 529 4.33 µM | Malme-3M 15 µM | OVCAR-5 12.3 µM | SF-268 16.7 µM | SK-OV-3 12.4 µM | SR 3.21 µM | SW-620 3.82 µM | TK-10 14.8 µM

COC(=O)C(=C/c1ccc(OC)cc1)/C(C(=O)O)=C(/C)c1ccccc1
inactive: ACHN > 100 µM | COLO 205 > 100 µM | HCT-116 > 100 µM | HL-60 > 100 µM | HOP-92 > 100 µM | IGROV-1 > 100 µM | K562 > 100 µM | KM12 > 100 µM | LXFL 529 > 100 µM | Malme-3M > 100 µM | OVCAR-4 > 100 µM | OVCAR-5 > 100 µM | SK-OV-3 > 100 µM | SR > 100 µM | SW-620 > 100 µM | TK-10 > 100 µM
